The test has as its target T1, hM5 (Homo sapiens, UniProt P08912).
T1 construct: expressed in transfected cells
T1 sequence (P08912 1-532): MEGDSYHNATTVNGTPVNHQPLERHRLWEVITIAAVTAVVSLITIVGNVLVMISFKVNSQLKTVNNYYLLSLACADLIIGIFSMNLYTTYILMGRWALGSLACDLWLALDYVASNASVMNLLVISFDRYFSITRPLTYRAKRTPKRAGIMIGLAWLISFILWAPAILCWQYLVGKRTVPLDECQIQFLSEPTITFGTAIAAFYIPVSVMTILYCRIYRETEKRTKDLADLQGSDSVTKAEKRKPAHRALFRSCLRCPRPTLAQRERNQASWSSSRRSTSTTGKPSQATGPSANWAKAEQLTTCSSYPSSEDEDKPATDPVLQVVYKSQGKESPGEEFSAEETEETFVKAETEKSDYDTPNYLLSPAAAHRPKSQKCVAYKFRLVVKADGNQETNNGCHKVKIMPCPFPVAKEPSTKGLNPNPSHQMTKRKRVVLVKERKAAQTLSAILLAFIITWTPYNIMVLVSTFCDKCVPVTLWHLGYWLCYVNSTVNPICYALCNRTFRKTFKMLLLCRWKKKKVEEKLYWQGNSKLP
Description: Calcium mobilization concentration-response (IC50 vs EC80 acetylcholine), CHO hM5. It is filed as cell-based. The following applies: CELL LINE hM5, read-out: IC50. In short, it runs like this: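 IC50 values derive from percent maximal acetylcholine response after an EC80 ACh addition, measured as kinetic calcium fluorescence (static ratio, max−min). Test compounds were added 140 s before agonist. Cells: stable hM5-CHO in HEPES-buffered HBSS with 2.5 mM probenecid, pH 7.4; ≥3 independent triplicate determinations.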

Setting [1] is: calcium mobilization, EC80 acetylcholine addition.

Read-outs that look alike come from different tables or passages of the source. Some results are limits rather than exact numbers.

As for `Cc1cc2nccn2nc1N1CCN(S(=O)(=O)c2cnc(C)n2C)CC1` [Compound 436, 6-(4-((1,2-dimethyl-1H-imidazol-5-yl)sulfonyl)piperazin-1-yl)-7-methylimidazo[1,2-b]pyridazine], the IC50 (vs EC80 acetylcholine) was determined as 113 nM.

For the compound `COC1(c2cn3ncnc3cc2C)CCN(S(=O)(=O)c2cnn3c2OCCC3)CC1` [Compound 416, 3-((4-methoxy-4-(7-methyl-[1,2,4]triazolo[1,5-a]pyridin-6-yl)piperidin-1-yl)sulfonyl)-6,7-dihydro-5H-pyrazolo[5,1-b][1,3]oxazine], the IC50 (vs EC80 acetylcholine) is over 10000 nM. Take `Cc1cc2ncnn2cc1C1CCN(S(=O)(=O)c2cnn(C)c2CN2Cc3ncccc3C2=O)CC1` [Compound 597, 6-((1-Methyl-4-((4-(7-methyl-[1,2,4]triazolo[1,5-a]pyridin-6-yl)piperidin-1-yl)sulfonyl)-1H-pyrazol-5-yl)methyl)-6,7-dihydro-5H-pyrrolo[3,4-b]pyridin-5-one]: the half-inhibitory concentration (IC50) (vs EC80 acetylcholine) was over 10000 nM. Take `COc1cc(C2CCN(S(=O)(=O)c3cc4c(cc3F)OCC4)CC2)cn2ncnc12` [Compound 115, 6-(1-((6-fluoro-2,3-dihydrobenzofuran-5-yl)sulfonyl)piperidin-4-yl)-8-methoxy-[1,2,4]triazolo[1,5-a]pyridine]: under setting [1], the IC50 is over 10000 nM. As to `Cc1cnccc1C1CCN(S(=O)(=O)c2cnn(C)c2C)CC1` [Compound 431, 4-(1-((1,5-dimethyl-1H-pyrazol-4-yl)sulfonyl)piperidin-4-yl)-3-methylpyridine], the IC50 (vs EC80 acetylcholine) stood at 812 nM. The same measure, in the same setting: next, `COC1(c2cn3ncnc3cc2C)CCN(S(=O)(=O)c2cnn(C)c2C)CC1` [Compound 412, 6-(1-((1,5-dimethyl-1H-pyrazol-4-yl)sulfonyl)-4-methoxypiperidin-4-yl)-7-methyl-[1,2,4]triazolo[1,5-a]pyridine]: over 10000 nM.

`CN1CCOc2cc(C3=CCN(S(=O)(=O)c4cnn(C)c4Cl)CC3)c(Cl)cc21` [Compound 377, 6-chloro-7-(1-((5-chloro-1-methyl-1H-pyrazol-4-yl)sulfonyl)-1,2,3,6-tetrahydropyridin-4-yl)-4-methyl-3,4-dihydro-2H-benzo[b][1,4]oxazine]: the IC50 under setting [1] turned out to be 1430 nM. Consider `O=S(=O)(c1cc2c(cc1F)OCC2)N1CCC(c2cc3cc[nH]c3cn2)CC1` [Compound 93, 5-(1-((6-fluoro-2,3-dihydrobenzofuran-5-yl)sulfonyl)piperidin-4-yl)-1H-pyrrolo[2,3-c]pyridine], for which the IC50 under setting [1] was over 10000 nM. As for `O=S(=O)(c1cnn2c1CCCC2)N1CCC(c2cn3ncnc3cc2C(F)(F)F)CC1` [Compound 271, 6-(1-((4,5,6,7-tetrahydropyrazolo[1,5-a]pyridin-3-yl)sulfonyl)piperidin-4-yl)-7-(trifluoromethyl)-[1,2,4]triazolo[1,5-a]pyridine], the IC50 under setting [1] amounted to 51 nM. Turning to `CCc1cc2ncnn2cc1C1CCN(S(=O)(=O)c2cnc3sccn23)CC1` [Compound 512, 5-((4-(7-ethyl-[1,2,4]triazolo[1,5-a]pyridin-6-yl)piperidin-1-yl)sulfonyl)imidazo[2,1-b]thiazole], for the setting “vs EC80 acetylcholine”, the IC50 was determined as 115 nM. For the compound `Cn1ncc(S(=O)(=O)N2CCC(c3cn4ncnc4cc3Cl)CC2)c1CC#N` [Compound 406, 2-(4-((4-(7-chloro-[1,2,4]triazoto[1,5-a]pyridin-6-yl)piperidin-1-yl)sulfonyl)-1-methyl-1H-pyrazol-5-yl)acetonitrile], the IC50 (vs EC80 acetylcholine) was 58 nM. For `Cc1cc(S(=O)(=O)N2CCC(c3nn4ccnc4cc3C)CC2)c(C)s1` [Compound 311, 6-(1-((2,5-dimethylthiophen-3-yl)sulfonyl)piperidin-4-yl)-7-methylimidazo[1,2-b]pyridazine], the IC50 under setting [1] is 4900 nM.

For `CN1CCOc2ccc(S(=O)(=O)N3CC=C(c4cc5c(cc4Cl)OCO5)CC3)cc21` [Compound 353, 6-((4-(6-chlorobenzo[d][1,3]dioxol-5-yl)-3,6-dihydropyridin-1(2H)-yl)sulfonyl)-4-methyl-3,4-dihydro-2H-benzo[b][1,4]oxazine], under setting [1], the IC50 is over 10000 nM. For `Cc1cc(S(=O)(=O)N2CCC(c3cn4ncnc4cc3C(F)(F)F)CC2)sn1` [Compound 495, 3-methyl-5-((4-(7-(trifluoromethyl)-[1,2,4]triazolo[1,5-a]pyridin-6-yl)piperidin-1-yl)sulfonyl)isothiazole], the half-inhibitory concentration (IC50) (vs EC80 acetylcholine) came out at 46 nM. As to `Cc1cc(N(C)C)ncc1C1CCN(S(=O)(=O)c2cnn(C)c2Cl)CC1` [Compound 551, 5-(1-((5-chloro-1-methyl-1H-pyrazol-4-yl)sulfonyl)piperidin-4-yl)-N,N,4-trimethylpyridin-2-amine], the IC50 (vs EC80 acetylcholine) was found to be 7 nM.

Consider `CO[C@H]1CN(S(=O)(=O)c2cnn(C)c2Cl)CC[C@@H]1c1cn2ncnc2cc1C` (single isomer, unassigned) [Compound 460], for which the IC50 (vs EC80 acetylcholine) was over 10000 nM. Take `Cc1cc2ncccc2cc1C1CCN(S(=O)(=O)c2c(Cl)nc3sccn23)CC1` [Compound 451, 6-chloro-5-((4-(7-methylquinolin-6-yl)piperidin-1-yl)sulfonyl)imidazo[2,1-b]thiazole]: the IC50 (vs EC80 acetylcholine) came to 619 nM. Turning to `Cc1cc2ncnn2cc1C1CCN(S(=O)(=O)c2cn(-c3ccccc3)nc2C)CC1` [Compound 102, 7-methyl-6-(1-((3-methyl-1-phenyl-1H-pyrazol-4-yl)sulfonyl)piperidin-4-yl)-[1,2,4]triazolo[1,5-a]pyridine], under setting [1], the IC50 was over 10000 nM. Regarding `Cc1cc2nccn2cc1C1CCN(S(=O)(=O)c2cn(C)nc2C)CC1` [Compound 71, 6-(1-((1,3-dimethyl-1H-pyrazol-4-yl)sulfonyl)piperidin-4-yl)-7-methylimidazo[1,2-a]pyridine], the IC50 under setting [1] was over 10000 nM. Regarding `Cn1ncc(S(=O)(=O)N2CCC(c3ccncc3)CC2)c1Cl` [Compound 364, 4-(1-((5-chloro-1-methyl-1H-pyrazol-4-yl)sulfonyl)piperidin-4-yl)pyridine], under setting [1], the IC50 is over 10000 nM. As to `CCc1cc2ncnn2cc1C1CCN(S(=O)(=O)c2cnc3ccccn23)CC1` [Compound 334, 7-ethyl-6-(1-(imidazo[1,2-a]pyridin-3-ylsulfonyl)piperidin-4-yl)-[1,2,4]triazolo[1,5-a]pyridine], the IC50 under setting [1] was 341 nM. Regarding `COc1c(S(=O)(=O)N2CCC(c3cn4ncnc4cc3Cl)CC2)cnn1C` [Compound 575, 7-chloro-6-(1-((5-methoxy-1-methyl-1H-pyrazol-4-yl)sulfonyl)piperidin-4-yl)-[1,2,4]triazolo[1,5-a]pyridine], the IC50 (vs EC80 acetylcholine) was 6 nM. For `O=S(=O)(c1ccc2c(c1)CCO2)N1CCC(c2cc3ccncc3s2)CC1` [Compound 13, 2-(1-((2,3-dihydrobenzofuran-5-yl)sulfonyl)piperidin-4-yl)thieno[2,3-c]pyridine], under setting [1], the IC50 is over 10000 nM. For `Cn1ncc(S(=O)(=O)N2CCC(c3cn4ncnc4cc3F)CC2)c1CC#N` [Compound 403, 2-(4-((4-(7-fluoro-[1,2,4]triazolo[1,5-a]pyridin-6-yl)piperidin-1-yl)sulfonyl)-1-methyl-1H-pyrazol-5-yl)acetonitrile], the IC50 (vs EC80 acetylcholine) was 5060 nM. Consider `O=S(=O)(c1cc2c(cc1F)OCC2)N1CCC(c2ccc3ncnn3c2)CC1` [Compound 61, 6-(1-((6-fluoro-2,3-dihydrobenzofuran-5-yl)sulfonyl)piperidin-4-yl)-[1,2,4]triazolo[1,5-a]pyridine], for which the IC50 under setting [1] is over 10000 nM.

These data come from patent US20230183237A1, “COMPETITIVE AND NONCOMPETITIVE INHIBITORS OF THE MUSCARINIC ACETYLCHOLINE RECEPTOR M5” (Vanderbilt University, priority 2020, published 2023).
